Measurements taken from patent US8735622B2, “Histone demethylase inhibitors and methods for using the same” (The Regents of the University of Colorado, a body corporate, priority 2011, dated 2014).
Entries after “also recorded” stand apart in the source; their conditions may differ.

Columns and labels:
[1] = target: T1, human GASC1 (GST-GASC1(1-420)) (Homo sapiens, UniProt Q9H3R0); experiment: GASC1 enzyme activity assay (DELFIA); type: biochemical; conditions: in vitro
T1 construct: corresponding to amino acid 1-420 was cloned and purified; made in house; host or cells: Escherichia coli BL-21
T1 sequence (Q9H3R0 1-420): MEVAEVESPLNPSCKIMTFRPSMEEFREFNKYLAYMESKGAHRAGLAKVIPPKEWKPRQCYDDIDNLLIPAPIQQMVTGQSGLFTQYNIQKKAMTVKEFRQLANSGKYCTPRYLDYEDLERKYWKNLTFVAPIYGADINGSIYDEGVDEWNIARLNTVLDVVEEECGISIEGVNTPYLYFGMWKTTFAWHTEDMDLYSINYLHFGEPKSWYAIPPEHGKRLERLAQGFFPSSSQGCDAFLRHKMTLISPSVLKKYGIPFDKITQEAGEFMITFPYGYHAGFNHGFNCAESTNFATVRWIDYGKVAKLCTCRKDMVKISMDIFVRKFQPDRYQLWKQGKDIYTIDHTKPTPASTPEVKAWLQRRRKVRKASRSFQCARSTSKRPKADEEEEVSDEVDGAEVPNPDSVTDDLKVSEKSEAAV
Experimental: In order to evaluate the inhibitory activity of 1 in vitro, a GST-fusion protein of the catalytic N-terminus of human GASC1 (gene amplified in squamous cell carcinoma 1) corresponding to amino acid 1-420 was cloned and purified. […] To evaluate the enzyme specificity of 1, the activity of 1 was examined against several other related enzymes in vitro.
The enzyme activity assays for GASC1 and JMJD2A were established on the DELFIA platform. DELFIA assays were performed in white, opaque 384-well plates coated with Streptavidin (Perkin Elmer). GST-GASC1(1-420) was diluted to 200 ng/well in 20 mM Tris HCl pH 8.5/2 mM glutathione and added in a volume of 20 μL. Blank wells received Tris/glutathione buffer only. Test compounds were diluted in DMSO and […] was pinned into the wells. Blank and control wells received only compound buffer. The reactions were initiated by the addition of 500 nM biotin-H3(1-20)K9me3 substrate, 10 μM FeSO4, 100 μM alpha-ketoglutarate in a volume of 20 μL, and incubated at room temperature for 60 minutes. The plates were washed 3 times with 100 μL of Wash Buffer (50 mM Tris pH 7.4, 150 mM NaCl, 0.05% Tween 20, 0.2% BSA). […] Time resolved fluorescence was measured after 45 minutes on an Envision Microplate Imager (Perkin Elmer Life Sciences) with 400 μs delay, excitation at 360 nm, and emission at 620 nm.

[2] = system: HDACs; experiment: Histone deacetylases (HDACs) enzyme inhibition assay (Fluor de Lys); type: biochemical; conditions: in vitro
Experimental: The enzyme activity assay for HDAC was carried out using Fluor de Lys Fluorescent Assay System (BML-AK500, Enzo Life Sciences Inc, NY USA). The assay was performed as the manufactory guide in white 384-well plates. Time resolved fluorescence was measured on a Beckman Coulter DTX 880 plate reader with 250 ms delay, excitation at 360 nm, and emission at 530 nm.

[3] = system: KYSE150 cells; experiment: Cell viability / growth inhibition assay (CellTiter-Glo); type: cell-based, human; conditions: 48 hours
Source text: To examine the cellular activity of the compounds of the invention, oesophageal carcinoma cell line KYSE150 was used in a growth inhibition assay because KYSE150 cells have been reported to contain several copies of the GASC1 gene, and it has been reported that inhibition of GASC1 expression using short hairpin RNA causes a significant reduction of proliferation in KYSE150 cells. […] Without being bound by any theory, it is believed that this low activity in cells was possibly due to the poor cellular uptake of the zwitterion form in which it typically exists under physiological conditions. Therefore, its methyl ester prodrug 2 (FIG. 1a), called methylstat was tested.
To screen and validate the cellular toxicity of compounds, a cell viability assay was carried out using CellTiter-Glo luminescent cell viability assay kit (Promega, Madison USA). KYSE150 cells were seeded on blank-walled 384-well plates with KYSE medium at densities of 1,000 cells/well. The medium volume for each well was 40 μL. Cells were incubated at 37° C. in 5% CO2/95% air for 24 hours. The medium was removed from each well and replaced with 38 μL, of warmed fresh medium and 2 μL, compound solution in 2% DMSO/98% H2O. The compounds were added into medium at different concentrations with the final concentration of DMSO as 0.1%. After incubation at 37° C. with 5% CO2/95% air for another 48 hours, the plates were equilibrated to room temperature for 30 minutes. 40 μL, of CellTiter-Glo reagent (Promega, Madison USA) was added to each well and mixed for 2 minutes on an orbital shaker. The plate was incubated at room temperature for another 10 minutes to stabilize luminescent signal. The luminescence of each sample was measured in a plate-reading illuminometer (Beckman Coulter DTX 880) with parameters of 1-minute lag time and 0.1 second/well read time. The experiments were performed in triplicate and repeated on two separately initiated cultures.

[4] = system: histone methylation marks in KYSE150 cells; experiment: Western blotting of histone methylation marks in KYSE150 cells; type: cell-based, human; conditions: KYSE150 cells, 5, 10, 15 μM, 48 hours
Experimental: Next, the cellular effects of methylstat were evaluated on a variety of histone methylation marks in KYSE150 cells. DMOG and DFO were used as positive controls, since they are known cell-active inhibitors of iron (II)- and α-ketoglutarate-dependent dioxygenases.
Total lysates of cells were generated from the cells lysed in CelLytic M Cell Lysis (Sigma) with protease inhibitor cocktail (Sigma), mixed with 2×LSB buffer (100 mM Tris-HCl pH 6.8, 200 mM DTT, 4% SDS, 20% glycerol and 0.2% bromophenol blue) and boiled for 5 min before SDS-PAGE. BCA assay (Thermo) was applied for protein qualification.
Histone extraction was generated from the cells lysed in Triton Extraction Buffer (TEB: PBS containing 0.5% Triton X 100 (v/v), 2 mM phenylmethylsulfonyl fluoride (PMSF), 0.02% (w/v) NaN3) at the density of 10^7 cells/mL. 0.2 N HCl was used to extract histone over night at 4° C.

[5] = system: histone methylation marks in MCF7 cells; experiment: Western blotting of histone methylation marks in MCF7 cells; type: cell-based, human; conditions: MCF7 cells, 5, 10, 15 μM, 48 hours

COC(=O)/C=C/C(=O)N(O)CCCCNCc1ccc(COC(=O)Nc2cccc3ccccc23)cc1 [methylstat]
inhibition of enzymatic activity of GASC1 [1]: did not significantly inhibit | inhibition of histone deacetylases (HDACs) [2]: did not significantly inhibit | KYSE150 cell growth inhibition ([3]; compound 1 at up to 100 μM): inhibits KYSE150 cell growth | GI50 ([3]; Homo sapiens, KYSE-150, KYSE150 cells, read-out: half maximal growth inhibitory concentration (GI50)): ~5.1 µM | hypermethylation of histone proteins (Western blot) [4]: induced hypermethylation of lysine residues; also recorded: induced hypermethylations of histone proteins in a concentration-dependent manner | hypermethylation of histone proteins (Western blot) [5]: induced concentration-dependent hypermethylation of lysine and arginine residues; also recorded: induced hypermethylations of histone proteins in a concentration-dependent manner
